# Measured values published in publication PMC7397269, “Synthesis and Evaluation of New Coumarin Derivatives as Antioxidant, Antimicrobial, and Anti-Inflammatory Agents” (Molecules, 2020).
# Values joined by “and” are separate entries in the source; they are usually repeats but may differ in a detail not shown here. Equal entries are not always repeated. Where two headings read alike, the source gives them in different places.
# Columns and labels:
# [1] = DPPH antioxidant assay (radical scavenging); format: biochemical; conditions: mean ± SD (n = 3)
# Method: The antioxidant effects of the synthesised compounds were assessed using the 2,2-diphenyl-1-picrylhydrazyl (DPPH) antioxidant assay. Table 1 summarises the antioxidant effects of the test samples and ascorbic acid except for compound 5b because it was produced in poor yield.
# The radical scavenging activity of the synthesised compounds was measured using the DPPH microplate-based method. The absorbance was measured using a microplate/cuvette reader (Spectramax M5, Molecular Devices, San Jose, CA, USA). Reference standard ascorbic acid was utilised as the positive control for this assay. Test samples were prepared at a starting concentration of 200 μg/mL after mixing with 100 μL of 0.2 mM DPPH methanolic solution. […] Samples were incubated with DPPH in the dark for 30 min at room temperature (25 °C). The methanolic DPPH solution was prepared daily and stored in a flask covered with aluminium foil. DPPH radicals have an absorption maximum (λmax) at 515 nm, at which the absorbance values were measured and converted into a percentage of antioxidant activity.
# The methanolic DPPH solution without antioxidants was used as a control, and samples in methanol alone served as a background control. IC50 was determined using GraphPad Prism 7 (GraphPad Software Inc., San Diego, CA, USA). The percent inhibition was calculated using the following Equation (1):(1) % Inhibition=100−Sample Absorbance −Sample background Absorbance/DPPH only Absorbance×100
# The assay was carried out in triplicate and performed as much as possible in an area protected against light. The data points are presented as the mean ± standard deviation (SD, n = 3).
# [2] = tested on: Staphylococcus aureus ATCC 29213; test: Agar well diffusion, S. aureus; format: cell-based; conditions: ATCC29213, 100 μL of 10 mg/mL in DMSO, read-out: diameter of inhibition zone, SA
# Text: (§1) The new molecules were individually tested for their antimicrobial activity in vitro against standard bacteria strains from the American Type Culture Collection (ATCC), namely, Staphylococcus aureus ATCC 29213, Bacillus subtilis ATCC 6633, Bacillus megaterium ATCC 9885 (Gram-positive), Escherichia coli ATCC 2592, and Pseudomonas aeruginosa ATCC 27,953 (Gram-negative). The compounds were also microbiologically tested against locally isolated Saccharomyces cerevisiae (yeast) and the standard Agricultural Research Service Culture Collection (NRRL) strain of the yeast-like pathogenic fungus Candida albicans NRRL Y-477. Primary screening was conducted using the agar well diffusion method using nutrient agar (NA) medium and Sabourand dextrose agar (SDA) medium for the tested pathological bacteria and yeast, respectively. […].
# (§2) Antimicrobial tests were conducted via the agar well diffusion method using 100 μL of suspension containing 1 × 10^8 CFU/mL pathological tested bacteria and 1 × 10^6 CFU/mL yeast spread on NA and SDA, respectively. After the media cooled and solidified, wells (10 mm in diameter) were made in the solidified agar and loaded with 100 μL of the tested compound solution prepared by dissolving 10 mg of the chemical compound in 1 mL dimethyl sulfoxide (DMSO). The inoculated plates were then incubated for 24 h at 37 °C for bacteria and yeast growth. DMSO served as negative control. Ciprofloxacin (10 mg/mL) and ketoconazole (10 mg/mL) were used as standards for antibacterial and antifungal activity, respectively. After incubation, antimicrobial activity was evaluated by measuring the zone of inhibition against the test organisms and compared with that of the standard. Antimicrobial activities were expressed as the diameter of the inhibition zone (IZ) in mm. The experiment was carried out in triplicate and the average zone of inhibition was calculated.
# [3] = tested on: Bacillus subtilis ATCC 6633; test: Agar well diffusion, B. subtilis; format: cell-based; conditions: ATCC6633, 100 μL of 10 mg/mL in DMSO, read-out: diameter of inhibition zone, BS
# Text: as §1, §2
# [4] = tested on: Bacillus megaterium ATCC 9885; test: Agar well diffusion, B. megaterium; format: cell-based; conditions: Priestia megaterium, ATCC9885, 100 μL of 10 mg/mL in DMSO, read-out: diameter of inhibition zone, BM
# Text: as §1, §2
# [5] = tested on: Escherichia coli ATCC 2592; test: Agar well diffusion, E. coli; format: cell-based; conditions: ATCC2592, 100 μL of 10 mg/mL in DMSO, read-out: diameter of inhibition zone, EC
# Text: as §1, §2
# [6] = tested on: Pseudomonas aeruginosa ATCC 27,953; test: Agar well diffusion, P. aeruginosa; format: cell-based; conditions: ATCC27, 100 μL of 10 mg/mL in DMSO, read-out: diameter of inhibition zone, PA
# Text: as §1, §2
# [7] = tested on: Saccharomyces cerevisiae local isolate; test: Agar well diffusion, S. cerevisiae; format: cell-based; conditions: read-out: diameter of inhibition zone, SC
# Text: as §1, §2
# [8] = tested on: Candida albicans NRRL Y-477; test: Agar well diffusion, C. albicans; format: cell-based; conditions: NRRLY477, 100 μL of 10 mg/mL in DMSO, read-out: diameter of inhibition zone, CA
# Text: as §1, §2
# trypsin = test: Proteinase-inhibitory activity; format: biochemical; conditions: 250 µg/mL; mean ± SD (n = 3)
# Method: The newly synthesised compounds were individually tested for their in vitro anti-inflammatory activity against proteinase enzyme. […] This test was performed at the Pharmacology Department, Medical Research Division, National Research Centre, Cairo, Egypt. Furthermore, compounds 2–8 were evaluated for their COX1/COX2 inhibitory activities.
# The test was performed according to El-Serwy et al. with minor modifications. The reaction mixture (2 mL) contained 0.06 mg trypsin, 20 mM Tris HCl buffer (pH 7.4), and 1 mL test sample (250 µg/mL for each compound). After incubating for 5 min, 1 mL of 0.8% (w/v) casein was added. The mixture was incubated for an additional 20 min. The reaction was arrested by adding 1 mL of 10% perchloric acid. The cloudy suspension was centrifuged, and the absorbance of the supernatant was read at 280 nm. Reference standard aspirin was used as the positive control. The experiment was performed in triplicate. The percent inhibition of protein denaturation was calculated using the following Equation (2):(2) % Inhibition=100−A control −A test/A control×100 where Acontrol and Atest represent the absorbance of the control reaction without and with the sample, respectively.
# COX-1 = molecular target: T1, COX-1 (Homo sapiens, UniProt P23219); test: COX-1 inhibition, Cayman assay kit; format: biochemical; conditions: mean of two determinations
# T1 construct: purchased Cayman Chemical 701070
# COX-2 = molecular target: T2, COX-2 (Homo sapiens, UniProt P35354); test: COX-2 inhibition, Cayman assay kit; format: biochemical; conditions: for IC50: mean of two determinations; for SI, selectivity index (COX-1/COX-2): ratio of COX-1/COX-2 IC50
# T2 construct: purchased Cayman Chemical 701080
# T2 sequence (P35354 18-604): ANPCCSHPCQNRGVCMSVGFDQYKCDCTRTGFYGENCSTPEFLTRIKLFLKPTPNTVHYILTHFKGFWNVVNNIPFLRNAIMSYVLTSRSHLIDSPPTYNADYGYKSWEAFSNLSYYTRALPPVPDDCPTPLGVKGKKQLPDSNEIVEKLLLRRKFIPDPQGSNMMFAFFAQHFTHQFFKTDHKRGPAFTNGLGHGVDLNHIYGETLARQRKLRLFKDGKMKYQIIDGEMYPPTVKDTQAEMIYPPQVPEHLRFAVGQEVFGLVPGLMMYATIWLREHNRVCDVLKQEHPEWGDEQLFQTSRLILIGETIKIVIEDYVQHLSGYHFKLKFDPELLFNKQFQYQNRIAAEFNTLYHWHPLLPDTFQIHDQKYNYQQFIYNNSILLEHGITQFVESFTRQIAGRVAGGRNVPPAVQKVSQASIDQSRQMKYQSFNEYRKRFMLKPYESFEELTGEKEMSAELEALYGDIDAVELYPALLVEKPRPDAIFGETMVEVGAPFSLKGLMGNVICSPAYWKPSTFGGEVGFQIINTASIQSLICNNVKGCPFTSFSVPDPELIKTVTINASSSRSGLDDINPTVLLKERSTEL
# [9] = well diffusion, 100 μL of 10 mg/mL in DMSO, S. cerevisiae
# T1 sequence (P23219 24-599): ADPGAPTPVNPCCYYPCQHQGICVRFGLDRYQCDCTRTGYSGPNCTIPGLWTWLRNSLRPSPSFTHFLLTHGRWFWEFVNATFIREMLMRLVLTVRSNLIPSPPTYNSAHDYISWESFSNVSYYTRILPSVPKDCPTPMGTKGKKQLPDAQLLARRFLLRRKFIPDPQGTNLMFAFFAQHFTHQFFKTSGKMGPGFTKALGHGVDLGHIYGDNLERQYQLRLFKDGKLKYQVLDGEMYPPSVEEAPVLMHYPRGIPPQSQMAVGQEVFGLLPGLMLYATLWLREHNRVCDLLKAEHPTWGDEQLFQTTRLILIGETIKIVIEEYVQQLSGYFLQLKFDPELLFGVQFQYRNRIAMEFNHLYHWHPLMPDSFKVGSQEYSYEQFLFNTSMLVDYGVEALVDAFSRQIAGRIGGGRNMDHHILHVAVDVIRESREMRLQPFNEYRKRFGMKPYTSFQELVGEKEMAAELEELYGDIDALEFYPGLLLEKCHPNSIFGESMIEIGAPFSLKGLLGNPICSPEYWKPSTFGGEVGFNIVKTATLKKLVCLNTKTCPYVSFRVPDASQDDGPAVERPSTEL
IC50 [1],% Inhibition (proteinase) (trypsin) [%],SMILES,zone of inhibition at 10000 µg/mL [2] [mm],zone of inhibition at 10000 µg/mL [3] [mm],zone of inhibition at 10000 µg/mL [4] [mm],zone of inhibition at 10000 µg/mL [5] [mm],zone of inhibition at 10000 µg/mL [6] [mm],zone of inhibition at 10000 µg/mL [7] [mm],zone of inhibition at 10000 µg/mL [8] [mm],IC50 (COX-1) [µM],IC50 (COX-2) [µM],"SI, selectivity index (COX-1/COX-2) (COX-2)",melting point [°C],"zone of inhibition at 10000 µg/mL [7, 9] [mm]"
32.85 ± 1.322 µg/mL,18.5 ± 3.47,"CC(=O)c1ccc(NS(=O)(=O)c2c(O)c3cc(Cl)ccc3oc2=O)cc1 [8e, N-(4-acetylphenyl)-6-chloro-4-hydroxy-2-oxo-2H-chromene-3-sulfonamide]",< 15,15,16,< 15,< 15,,< 15,19.9,9.22,2.2 and 2.16,238 to 240,< 15
35.36 ± 3.265 µg/mL,2.0 ± 1.4,"CC(=O)c1ccc(NS(=O)(=O)c2c(O)c3cc(C)ccc3oc2=O)cc1 [8f, N-(4-acetylphenyl)-4-hydroxy-6-methyl-2-oxo-2H-chromene-3-sulfonamide]",16,15,15,< 15,< 15,,< 15,7.92,25.7,0.3 and 0.31,231 to 232,< 15
,45.83 ± 4.21,"CC(=O)Oc1ccccc1C(=O)O [Aspirin, reference compound]",,,,,,,,,,,,

# Further lines, the compound ahead of its results:
SMILES,IC50 [1],% Inhibition (proteinase) (trypsin) [%],zone of inhibition at 10000 µg/mL [2] [mm],zone of inhibition at 10000 µg/mL [3] [mm],zone of inhibition at 10000 µg/mL [4] [mm],zone of inhibition at 10000 µg/mL [5] [mm],zone of inhibition at 10000 µg/mL [6] [mm],zone of inhibition at 10000 µg/mL [7] [mm],zone of inhibition at 10000 µg/mL [8] [mm],IC50 (COX-1) [µM],IC50 (COX-2) [µM],"SI, selectivity index (COX-1/COX-2) (COX-2)",melting point [°C],"zone of inhibition at 10000 µg/mL [7, 9] [mm]"
"Cc1ccc2oc(=O)c3c(c2c1)OC(/N=C/N(C)C)=C(C#N)C3c1ccc([N+](=O)[O-])cc1 (racemic) [4a, (±)-N′-(3-cyano-9-methyl-4-(4-nitrophenyl)-5-oxo-4H,5H-pyrano[3,2-c]chromen-2-yl)-N,N-dimethylformimidamide]",— ((—): inactive (IC50 > 200 μg/mL)),31.99 ± 2.45,16,< 15,< 15,< 15,< 15,< 15,< 15,12.5,7.99,1.56,279 to 281,
"Cc1ccc2oc(=O)c3c(c2c1)OC(/N=C/N(C)C)=C(C#N)C3c1ccco1 (racemic) [4b, (±)-N′-(3-cyano-4-(furan-2-yl)-9-methyl-5-oxo-4H,5H-pyrano[3,2-c]chromen-2-yl)-N,N-dimethylformimidamide]",— ((—): inactive (IC50 > 200 μg/mL)),33.17 ± 2.79,16,< 15,< 15,15,15,< 15,< 15,57.5,25.2,2.28,273 to 275,
"Cc1ccc2oc(=O)c3c(c2c1)OC(/N=C/c1ccccc1)=C(C#N)C3c1ccco1 (racemic) [5b, (±)-2-(benzylideneamino)-4-(furan-2-yl)-9-methyl-5-oxo-4H,5H-pyrano[3,2-c]chromene-3-carbonitrile]",,,,,,,,,,215,19.6,10.9 and 10.97,250 to 252,
"O=C1O[C@H]([C@@H](O)CO)C(O)=C1O [Ascorbic acid, reference compound]",2.83 ± 0.166 µg/mL,,,,,,,,,,,,,
